Reference: patent US10086010B2 (STC.UNM, priority 2014, dated 2018)
Where two headings read alike, the source gives them in different places.

Experiments:
[1] = tested on: HT-29 cells; test: WST-1 cell growth/viability assay, HT-29; format: cell-based, human; conditions: for effect of PARP inhibitor on the reduction in succinate-tetrazolium reductase activity by 5-FU and hmUdR: inhibitor added simultaneously with 5-FU and hmUdR; for GI50: Homo sapiens, HT-29, 72 h, 72 hours
Method: Indicated concentrations of drugs were added to wells one day after seeding. […] Cell proliferation was quantitated by measuring 450 nm absorbance and 600 nm as a background. All assays were performed in triplicate. […] The minimal combination index […] for each cell line was obtained from the isobologram parameters.

[2] = tested on: HT-29 cells; test: CyQUANT cell proliferation assay; format: cell-based, human; conditions: 3AB present with 5-FU and hmUdR for 72 h
Method: Cell proliferation assays measuring genomic DNA were carried out using the CyQUANT kit (Invitrogen). In these experiments, the cells after drug treatments were replated to grow in the absence of the drugs for six days, and their nucleic acids was quantitated by CyQUANT assay. These assays were also conducted in triplicate.

[3] = tested on: HT-29 cells; test: Alkaline comet assay (single-strand breaks); format: cell-based, human; conditions: 48 h; for number of DNA single-strand breaks: 0.5 μM 5-FU and/or 5 μM hmUdR
Method: (§1) After incubation for indicated time periods (12-48 h), the cells were trypsinized and washed in PBS. For time course experiments, cells harvested at each time point were stored in 10% DMSO/40% DMEM/50% FBS at −80° C. until slide processing. Approximately 5,000 cells were spread in 0.9% low-melting point agarose/PBS on CometSlide (Trevigen), and chilled at 4° C. in the dark for 20 min.
For alkaline comet assay, slides were soaked in precooled lysis buffer containing 2.5 M NaCl/100 mM EDTA/10 mM Tris/1% sarkosyl/1% Triton X-100 at 4° C. for 45 min, followed by soaking in precooled 300 mM NaOH/1 mM EDTA at 4° C. for 45 min. Subsequently, slides were electrophoresed in 300 mM NaOH/1 mM EDTA at 1.4 V/cm for 20 min at 4° C., washed in 70% ethanol for 5 min, and allowed to dry in the dark. Cellular DNA was stained with 1×SYBR Green I (Molecular Probes) 30 min before analysis with a fluorescence microscope. Alkaline comet assays were performed in triplicate and more than 30 comets for each condition were photographed at the Light Microscope Facility at Fox Chase Cancer Center, and analyzed by CometScore software (TriTek).

[4] = tested on: HT-29 cells; test: Cell cycle analysis by flow cytometry; format: cell-based, human
Method: HT-29 cells that were seeded at 2×10^6 cells/plate in 10 cm dishes and incubated with 20 ng/ml nocodazole for 18 h. […] The synchronized cells were washed with PBS prior to the addition of fresh medium containing the indicated nucleosides and/or bases.
Cells grown in 10 cm dishes were trypsinized, spun down and suspended in 10 ml PBS containing 0.5% FBS. […], the cells were resuspended in 0.5 ml PBS/0.5% FBS, and fixed in 5 ml 70% ethanol at −20° C. […] and washing with 10 ml PBS/0.5% FBS, the cells were suspended in 1.5 ml PBS/0.5% FBS containing 10 μg/ml propidium iodide and 50 μg/ml RNase A, and incubated at 37° C. for 30 min. Cell cycle distribution was analyzed with a FACScan flow analyzer (Becton Dickinson).

[5] = tested on: human CRC HT-29 cells; test: Cell growth assay, Example 2; format: cell-based
[6] = tested on: HT-29 cells; test: Neutral comet assay (double-strand breaks); format: cell-based, human; conditions: 0.5 μM FU and/or 5 μM hmUdR, 48 h
Method: as §1
For neutral comet assay, slides were soaked in precooled lysis buffer at 4° C. for 30 min, followed by washing in precooled 1×TBE buffer (90 mM Tris-borate, pH8.3, 2 mM EDTA). Slides were electrophoresed in 1×TBE buffer at 2 V/cm for 20 min at 4° C., rinsed in deionized water, washed in 70% ethanol for 5 min, and allowed to dry in the dark. Subsequently, slides were processed as above for DNA staining and comet analyses. Neutral comet assays were conducted in duplicate, in each of which more than 60 comets for each condition were analyzed.

[7] = tested on: HT-29 cellular DNA; test: Quantitation of 5-FU and hmUdR incorporated into cellular DNA; format: cell-based, human; conditions: at 48 h
Method: [6-^3H]-5-FU (18 Ci/mmol) and of [^3H]-hmUdR (10 Ci/mmole) were purchased from Moravek Biochemicals. […] At 24 or 48 h after drug addition, cells were washed with PBS and their DNA was recovered with Trizol (Invitrogen) according to the manufacturer's instruction. Subsequently the recovered DNA was quantitated by 260 nm absorbance, and its radioactivity was measured by liquid scintillation counting.

[8] = tested on: HT-29 cells expressing GFP-H2B; test: Time-lapse microscopy of cell divisions; format: cell-based, human; conditions: 0.5 μM 5-FU and/or 5 μM hmUdR
Method: HT-29 cells were infected with a retroviral vector for expression of […] histone H2B. HT-29 cells expressing GFP-H2B were seeded at 2×10^5 cells/well in 6-well plates. On the following day, drug treatments were initiated and cell proliferation was monitored by time-lapse microscopy. Image acquisition was done at the Light Microscope Facility at Fox Chase Cancer Center using phase-contrast and GFP-specific fluorescence microscopy (Nikon TE2000S) controlled by Metamorph (Molecular Devices). Images were captured at a rate of one frame per 15 minutes for 60 hours, in which cells were kept at 37° C. Images were captured from 10 areas per well. The number of cell divisions that occurred in each area was counted for the first 24 h and the second 24 h periods.

[9] = tested on: PARP1; test: Immunoblot detection of PARP1 cleavage; format: cell-based, human; conditions: 5-FU and hmUdR 72 h; control 50 μM LY294002 1 h followed by 4 h 100 μg/ml TRAIL
Method: After […] on ice, cells were scraped and […] for 10 min at 4° C. The supernatant was recovered. This whole cell extract (50 μg protein) was subjected to SDS-containing polyacrylamide gel electrophoresis, and transferred to Immobilon-P membrane (Millipore). For detection of poly(ADP-ribose), the nuclear pellet was recovered after removing the whole cell extract as prepared above except that the lysis buffer was supplemented with 50 μM ethacridine, an inhibitor of poly(ADP-ribose) glycohydrolase. 10 μg protein of the nuclear pellet was subjected to gel electrophoresis and transfer to membrane as described above. Primary antibodies used in this study were anti-PARP1 monoclonal mouse antibody (Trevigen), anti-p62 polyclonal rabbit antibody (Santa Cruz Biotechnology), anti-LC3 polyclonal rabbit antibody (Novus Biologicals), anti-β-actin monoclonal mouse antibody (Sigma), and anti-PCNA monoclonal antibody (PC10; Santa Cruz Biotechnology), anti-poly(ADP-ribose) mouse monoclonal antibody (Tulip Biolabs). […] Immunoblot signals were detected either by Odyssey Imaging System (LI-COR Biotechnology) or by exposure of X-ray films to the membrane soaked in ECL reagent (GE Healthcare).

[10] = 0.5 μM 5-FU + 5 μM hmUdR, WST-1
[11] = 5 mM caffeine for the last 24 h

Molecule: NC(=O)c1cccc(N)c1 [3AB, 3-aminobenzamide]
- effect of PARP inhibitor on the reduction in succinate-tetrazolium reductase activity by 5-FU and hmUdR [1]: partially corrected
- rescue of the effect of 5-FU and hmUdR on cell proliferation (CyQUANT) [2]: did not rescue
- effect of 3AB on the number of strand breaks caused by 5-FU and hmUdR ([3]; 3 mM 3AB, 0.5 μM 5-FU, 5 μM hmUdR): significantly decreased
- effect of 3AB on the S phase arrest induced by 5-FU and hmUdR ([4]; 3 mM 3AB added simultaneously with 0.5 μM 5-FU and 5 μM hmUdR): enabled most cells to progress through S phase to G2/M

Molecule: O=c1[nH]cc(F)c(=O)[nH]1 [5-FU, 5-fluorouracil]
- GI50 ([1]; read-out: GI50 of HT-29 cells for 5-FU, 5-FU alone): 19 µM
- GI50 ([1]; read-out: GI50 of HT-29 cells for 5-FU, combined with hmUdR): < 0.1 µM
- effect on HT-29 cell growth of increasing concentration in the absence of fdU [5]: minimal effect
- number of DNA single-strand breaks [3]: did not significantly increase
- number of double strand breaks [6]: no significant effect
- cells accumulated in S phase ([4]; unsynchronized HT-29 cells, 0.5 μM 5-FU and/or 5 μM hmUdR, 48 h): 52%
- incorporation of 5-FU into cellular DNA in the presence of hmUdR [7]: decreased

Molecule: O=c1[nH]cc(CO)c(=O)[nH]1 [5-hydroxymethyluracil]
- enhancement of 5-FU activity / synergy with 5-FU ([1]; HT-29, 72 hours): did not significantly enhance

Molecule: C[C@]1(c2nc3c(C(N)=O)cccc3[nH]2)CCCN1 [ABT-888]
- effect of PARP inhibitor on the reduction in succinate-tetrazolium reductase activity by 5-FU and hmUdR [1]: partially corrected

Molecule: CN1C(=O)C(Cc2c[nH]c3ccccc23)NC1=S (stereo not shown) [Nec-1]
- effect of necroptosis inhibitor on the growth inhibition effect of 5-FU and hmUdR [1, 10]: did not reduce

Molecule: COC(=O)CC(NC(=O)C(NC(=O)c1ccc2ccccc2n1)C(C)C)C(=O)COc1c(F)cccc1F (stereo not shown) [QVD, Quinolyl-valyl-O-methylaspartyl-[-2,6-difluorophenoxy]-methyl ketone]
- effect of caspase inhibitor on the growth inhibition effect of 5-FU and hmUdR [1, 10]: did not diminish

Molecule: O=c1ccn([C@H]2C[C@H](O)[C@@H](CO)O2)c(=O)[nH]1 [UdR, 2′-deoxyuridine]
- enhancement of 5-FU activity / synergy with 5-FU ([1]; HT-29, 72 hours): neither UdR nor heUdR significantly enhanced

Molecule: Cn1c(=O)c2c(ncn2C)n(C)c1=O [caffeine]
- effect of caffeine on the S phase arrest induced by 5-FU alone [4, 11]: abolished
- effect of caffeine on the S phase arrest induced by the combination of 5-FU and hmUdR [4, 11]: resistant
- effect of caffeine on the G2/M arrest of cells incubated with 3AB, 5-FU and hmUdR ([4]; unsynchronized HT-29 cells): partially released the G2/M arrest

Molecule: O=Cc1cn([C@H]2C[C@H](O)[C@@H](CO)O2)c(=O)[nH]c1=O [foUdR, 5-formyl-2′-deoxyuridine]
- activity with 5-FU relative to hmUdR ([1]; HT-29, 72 hours): comparable
- enhancement of 5-FU activity / synergy with 5-FU ([1]; HT-29, 72 hours): acted synergistically

Molecule: O=c1[nH]c(=O)n([C@H]2C[C@H](O)[C@@H](CO)O2)cc1O [hUdR, 5-hydroxy-2′-deoxyuridine]
- enhancement of 5-FU activity / synergy with 5-FU ([1]; HT-29, 72 hours): to a lesser extent, hUdR (FIG. 5E) acted synergistically

Molecule: O=c1[nH]c(=O)n([C@H]2C[C@H](O)[C@@H](CO)O2)cc1CCO [heUdR, 5-hydroxyethyl-2′-deoxyuridine]
- enhancement of 5-FU activity / synergy with 5-FU ([1]; HT-29, 72 hours): neither UdR nor heUdR significantly enhanced

Molecule: O=c1[nH]c(=O)n([C@H]2C[C@H](O)[C@@H](CO)O2)cc1CO [hmUdR, 5-Hydroxymethyl-2′-deoxyuridine]
- number of cell divisions per view field, second 24 h period relative to first 24 h period [8]: 1.4±0.2 times
- number of DNA single-strand breaks [3]: did not significantly increase
- number of double strand breaks [6]: increased
- cell cycle distribution ([4]; unsynchronized HT-29 cells, 5 μM hmUdR alone, 48 h): did not change the cell cycle distribution

B1: TRAIL: used with LY294002 as positive control for PARP1 cleavage; known to cause apoptosis (protein, UniProt P50591 1-281, looked up)
Tumor necrosis factor ligand …: MAMMEVQGGPSLGQTCVLIVIFTVLLQSLCVAVTYVYFTNELKQMQDKYSKSGIACFLKEDDSYWDPNDEESMNSPCWQVKWQLRQLVRKMILRTSEETISTVQEKQQNISPLVRERGPQRVAAHITGTRGRSNTLSSPNSKNEKALGRKINSWESSRSGHSFLSNLHLRNGELVIHEKGFYYIYSQTYFRFQEEIKENTKNDKQMVQYIYKYTSYPDPILLMKSARNSCWSKDAEYGLYSIYQGGIFELKENDRIFVSVTNEHLIDMDHEASFFGAFLVG
- PARP1 cleavage (characteristic of apoptosis) [9]: induced
